The text below walks through data of article PMC10011747, “Targeting androgen receptor and the variants by an orally bioavailable Proteolysis Targeting Chimeras compound in castration resistant prostate cancer” (eBioMedicine, 2023).

Data set [1] in a line: In vitro stability in plasma. The format is in vitro ADME. Conditions: mouse, BALB/c mice plasma, 37 °C, read-out: Plasma stability T1/2. On the procedure:
The in vitro stability of the PROTAC compounds was performed in BALB/C (BALB/cAnNCrlBltw) mice plasma. The reactions were initiated by adding 10 μM PROTAC compounds to 0.5 mL of pre-warmed plasma solution. The assays were performed in Thermomixer at 37 °C. During the incubation, 20 μL samples were taken at 0, 30, 60, 120, and 240 min time points, and added to 120 μL of acetonitrile to deproteinize the plasma. After 10 min of centrifugation at 14,000 rpm, the supernatants were collected for subsequent HPLC-UV analysis (Waters 1525 Binary and 2707 Autosampler).

A further data set addresses T1, AR NTD (221–320) (Homo sapiens, UniProt P10275).
T1 construct: GST tagged AR-NTD protein (221–320) (Abcam ab157902); purchased Abcam ab157902; host or cells: wheat germ (datasheet)
T1 sequence (P10275 221-320): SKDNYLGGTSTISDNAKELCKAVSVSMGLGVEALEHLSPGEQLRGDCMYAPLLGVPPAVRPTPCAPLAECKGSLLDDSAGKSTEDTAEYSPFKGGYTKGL
Description: Affinity selection mass spectrometer (ASMS) binding assay. Conditions: 100 nM compound with 100 nM GST-AR-NTD, 1 h 37 °C; percentage of input compound recovered. As to the method:
Affinity selection mass spectrometer (ASMS)[40] binding assay was employed for the screen and relative binding affinity assessment of AR NTD binding compounds. Briefly, GST tagged AR-NTD protein (221–320) (Abcam ab157902) at final concentration of 100 nM was incubated with 100 nM of individual candidate compounds in PBS for 1 h at 37 °C. The protein-compound mixture was filtered through 10K MWCO pore sized Nanosep centrifugal column (PALL Life science) with thorough wash steps to separate protein-bound and unbound compounds. The protein-bound compounds were subsequently extracted and analyzed by ABSCIEX 4000 QTRAP LC-ESI MS/MS (AB Sciex, Framingham, MA) coupled to an Agilent 1200 HPLC system. A Waters S XBridge RP18, 3.5 μm, 4.6 × 20 mm column was used as the stationary phase (Waters Corporation, Milford, MA, USA). Gradient elution was carried out using water with 0.1% formic acid (solvent A) and acetonitrile with 0.1% formic acid (solvent B) as a mobile phase. Positive ion polarity scanning was used in electrospray (ESI) mass-triggered fraction collection to monitor the target mass. Quantification of protein-bound compounds was determined against calibration curves established with drug standards. For relative binding affinity assessment, same procedure and condition was carried out for each compound without target protein incubated in the reaction as background controls. Relative binding affinity was calculated as percentage of input compound quantity after background value subtraction.

Data set [2] in a line: Metabolic stability in liver microsomes. Particulars: pooled liver microsomes, pH 7.4, mouse CD-1 liver microsome 0.8 mg/mL, read-out: MLM stability T1/2. The data set is classed as in vitro ADME. On the procedure:
The mouse CD-1 pooled liver microsome (Corning Product ID: 452701, Lot: 0010003) was used to test compound stability. The reaction was carried out in 100 mM, pH 7.4 phosphate buffer containing microsome (0.8 mg/mL), NADP^+ (1.3 mM), glucose-6-phosphate (3.3 mM), glucose-6-phosphate dehydrogenase (0.4 U/mL), magnesium chloride (3.3 mM) and the test article (1 μM) with 1% (v/v) final concentration of DMSO. The reaction was incubated at 37 °C with shaking. At 0, 10, 20, and 30 min time points, 20 μL of the reaction mixture was taken and quenched immediately with 120 μL acetonitrile. The quenched sample were centrifuged, and the supernatant was then analyzed by LC-MS/MS (ABI4000Q-TRAP). 1 μM warfarin and 1 μM verapamil with same reaction conditions was used as negative and positive control, respectively.
In general terms: Liver microsomes are vesicles of endoplasmic reticulum, rich in cytochrome P450 enzymes.

Another data set concerns CWR22Rv1 xenograft. Description: CWR22Rv1 xenograft efficacy study. The format is in vivo. On the procedure:
Immunodifficient male C.B-17 SCID mice (NOD.CB17-Prkdc^scid/NcrCrlBltw) at 4–6 weeks of age were purchased from BioLASCO Taiwan Co., Ilan, Taiwan. All mice were housed in conventional cages in the AAALAC Full Accreditation (2011) in Industrial Technology Research Institute and were allowed to acclimatize and recover from shipping-related stress for one week prior to the study. The health of the mice was monitored by daily observations. Animals were kept in rooms at temperature of 22–26 °C with 40–70% humidity, positive pressure, 60% air recirculation, ventilation rate 15–20 changes per hour, and a controlled light–dark cycle (12–12 h). The order and location of each animal cage was randomly assigned to minimize potential confounders. CWR22Rv1 cells (5 × 10^6) were suspended in 100 μL of PBS with 30% Matrigel and subcutaneously implanted into the right flank of male C.B-17 SCID mice. Tumors were measured with calipers, and tumor size was calculated as follows: tumor volume (V) = (L × S^2)/2 (L, longest diameter, mm; S, shortest diameter, mm). When mean tumor volume reached 150–200 mm^3, the mice were randomly assigned into indicated groups (n = 5–6/group) and the day of initiating treatments was assigned as day 0. In the study using intraperitoneal (IP) injection, the mice received vehicle control (NMP: Cremophor: PBS = 1:2:7 (v:v:v)), ITRI-90 (10 mg/kg, BID) or ITRI-126 (10 mg/kg, BID) for the indicated days. In the study using oral (PO) gavage, the mice received vehicle control or ITRI-90 (100 mg/kg, BID) for 21 days. Tumor size and body weight of the animals were monitored and recorded two to three times per week. Mice were sacrificed when one of the tumor reached over 1000 mm^3 in size. Tumors were collected and immediately subjected to liquid nitrogen freezing and homogenization. The homogenized tumor samples were stored at −80 °C for subsequent western blotting analysis. The drug antitumor efficacy was presented as percentages of TGI of each tested animal, calculated as follows: [1 − (final tumor volume − initial tumor volume of the treated group)/average of (final tumor volume − initial tumor volume of the vehicle group)] × 100. Body weight of each mouse was also compared to that on the first day of treatment (day 0) and expressed as a percentage of day 0 value. All data points were included for calculation and the values are presented as mean ± SEM. Statistical analysis of the differences between two drug and vehicle treated groups was determined by two-tailed Student's t test. For negative control, same procedures as described above were followed. PC3 cells (5 × 10^6) mixing with 50% matrigel were subcutaneously implanted into both flanks of 8 male C.B-17 SCID mice, followed by random assignment for oral administration of vehicle control or ITRI-90 drug (100 mg/kg, BID) treatment (n = 4/group).

As for `Cc1ncsc1-c1ccc(CNC(=O)[C@@H]2C[C@H](O)CN2C(=O)[C@@H](NC(=O)COCCCCOc2ccc(C3CCN(C4=Nn5c(nnc5C(F)(F)F)CC4)CC3)cc2)C(C)(C)C)cc1` [ITRI-90, (2S,4S)-1-((S)-3,3-dimethyl-2-(2-(4-(4-(1-(3-(trifluoromethyl)-7,8-dihydro-[1,2,4]triazolo[4,3-b]pyridazin-6-yl)piperidin-4-yl)phenoxy)butoxy)acetamido)butanoyl)-4-hydroxy-N-(4-(4-methylthiazol-5-yl)benzyl)pyrrolidine-2-carboxamide], the half-life at 10 μM in data set [1] was > 4 h. On AR NTD (221–320), the “ASMS relative binding (%)” value is recorded as 15.9%. Besides, in data set [2], the half-life at 1 μM was > 0.5 h. For the same compound, the “toxicity monitored by animal body weight” value with CWR22Rv1 xenograft (IP 10 mg/kg twice daily) is on record as “without obvious toxicities”; with CWR22Rv1 xenograft (PO 100 mg/kg twice daily, 21 days), “without obvious toxicity”. The “tumor growth inhibition (TGI)” value was determined as 76.64 ± 11.1% in the data set with CWR22Rv1 xenograft (IP 10 mg/kg twice daily, day 12, SCID mice, no hormone manipulation) and 71.73 ± 6.42% with CWR22Rv1 xenograft (PO 100 mg/kg twice daily, day 21, SCID mice, no hormone ablation). Moreover, the “AR-FL and AR-Vs protein levels in tumors” value in the data set on CWR22Rv1 xenograft (PO 100 mg/kg twice daily, final time point, western blot) is given as “reduced”.
With `O=C1CCC(N2Cc3c(NC(=O)COCCCCOc4ccc(C5CCN(C6=Nn7c(nnc7C(F)(F)F)CC6)CC5)cc4)cccc3C2=O)C(=O)N1` (centres unmarked) [ITRI-126, N-(2-(2,6-dioxopiperidin-3-yl)-1-oxoisoindolin-4-yl)-2-(4-(4-(1-(3-(trifluoromethyl)-7,8-dihydro-[1,2,4]triazolo[4,3-b]pyridazin-6-yl)piperidin-4-yl)phenoxy)butoxy)acetamide], the “ASMS relative binding (%)” value on AR NTD (221–320) was 20%. The “tumor growth inhibition (TGI)” value in the data set on CWR22Rv1 xenograft (IP 10 mg/kg twice daily, day 14, SCID mice, no hormone manipulation) is listed as 49.8 ± 11.1%. In addition, the “toxicity monitored by animal body weight” value with CWR22Rv1 xenograft (mouse, in vivo, ip, 10 mg/kg) is listed as “without obvious toxicities”.
Take `Cc1ncsc1-c1ccc(CNC(=O)[C@@H]2C[C@H](O)CN2C(=O)[C@@H](NC(=O)COCCCCCCOc2ccc(C3CCN(C4=Nn5c(nnc5C(F)(F)F)CC4)CC3)cc2)C(C)(C)C)cc1` [ITRI-125, (2S,4S)-1-((S)-3,3-dimethyl-2-(2-(6-(4-(1-(3-(trifluoromethyl)-7,8-dihydro-[1,2,4]triazolo[4,3-b]pyridazin-6-yl)piperidin-4-yl)phenoxy)hexyloxy)acetamido)butanoyl)-4-hydroxy-N-(4-(4-methylthiazol-5-yl)benzyl)pyrrolidine-2-carboxamide]: in data set [1], the half-life at 10 μM was > 4 h. Also, the “ASMS relative binding (%)” value at AR NTD (221–320) was 13.6%. In addition, the half-life at 1 μM in data set [2] is > 0.5 h.
